Five compounds from ChEMBL document CHEMBL3045401, “(Naphthalen-1-yloxy)-acetic acid benzylidene/(1-phenyl-ethylidene)-hydrazide derivatives: synthesis, antimicrobial evaluation, and QSAR studies” (Med Chem Res, 2012) can be followed below.

Usually logP stands for the decadic logarithm of the partition coefficient of the neutral form, usually between octanol and water. As a reminder, the EC50 is the concentration at which the effect is half-maximal. Usually CC50 stands for the concentration giving 50% cytotoxicity. Low readings indicate greater toxicity to the cells, high ones lower toxicity to the cells.

Converted amounts (≈) assume the structure as drawn.

The nature of series [1]: Octanol-water partition coefficient, log P of the compound. In kind it is physicochemical.
In another series the test system is Aspergillus niger. The experiment in a line: Antimicrobial activity against Aspergillus niger after 7 days by serial dilution method. The format is functional.
The test system of a further series is Candida albicans. The experiment in a line: Antimicrobial activity against Candida albicans after 2 days by serial dilution method. The format is functional.
The next series relates to Escherichia coli. Nature of the series: Antimicrobial activity against Escherichia coli after 24 hr by serial dilution method. The format is functional.
The test system of another series is Staphylococcus aureus. The experiment in a line: Antimicrobial activity against Staphylococcus aureus after 24 hr by serial dilution method. The format is functional.
The next series concerns Bacillus subtilis. Nature of the series: Antimicrobial activity against Bacillus subtilis after 24 hr by serial dilution method. In kind it is functional.
The nature of series [2]: Cytotoxicity against HEL assessed as minimum concentration required to cause morphological changes. In kind it is cell-based. To be noted: human, HEL cells.
In series [3] the test system is Human betaherpesvirus 5. The experiment in a line: Antiviral activity against Human herpesvirus 5 Davis infected human HEL cells assessed as reduction in the virus plaque formation. Conditions: Human betaherpesvirus 5, Davis. In kind it is functional, organism-based.
Series [4] relates to Human betaherpesvirus 5. Nature of the series: Antiviral activity against Human herpesvirus 5 strain AD169 infected human HEL cells assessed as reduction in the virus plaque formation. The format is functional, organism-based. Conditions: Human betaherpesvirus 5, AD169, HEL.
The nature of series [5]: Cytotoxicity against HEL. To be noted: human, HEL cells. In kind it is cell-based.
Series [6] concerns Human alphaherpesvirus 3. The experiment in a line: Antiviral activity against thymidine kinase-deficient Human herpesvirus 3 infected in HEL cells assessed as inhibition of viral plaque formation. The format is functional, organism-based. Conditions: Human alphaherpesvirus 3, HEL.
In series [7] the test system is Human alphaherpesvirus 3. The experiment in a line: Antiviral activity against thymidine kinase-positive Human herpesvirus 3 infected in HEL cells assessed as inhibition of viral plaque formation. Conditions: Human alphaherpesvirus 3, HEL. The format is functional, organism-based.
Series [8] can be described thus: Cytotoxicity against Homo sapiens (human) MT4 cells after 4 days by MTT assay. In kind it is cell-based.
Series [9] relates to Human immunodeficiency virus 2. The experiment in a line: Antiviral activity against Human immunodeficiency virus type 2 (ISOLATE ROD) infected human MT4 cells assessed as inhibition of virus-induced cytopathic effect after 4 days by MTT assay. The format is functional, organism-based. To be noted: Human immunodeficiency virus 2, ISOLATE ROD, MT4, 96 h.
Series [10] has as its system Human immunodeficiency virus 1. Nature of the series: Antiviral activity against Human immunodeficiency virus 1 IIIB infected human MT4 cells assessed as inhibition of virus-induced cytopathic effect after 4 days by MTT assay. To be noted: MT4, 96 h. The format is functional, organism-based. In general terms: Damage to the host cells serves as the signal in cytopathic effect assays.

Consider `O=C(COc1cccc2ccccc12)N/N=C/c1c(O)ccc2ccccc12`, for which the log partition coefficient (logP) in [1] was 4.74. Also, the “-logMIC” value with Aspergillus niger is given as 0.87; with Candida albicans, 0.87; in the series with Escherichia coli, 0.87; in the series on Staphylococcus aureus it was 0.87; with Bacillus subtilis it was 0.57. Further, in series [2], the MCC was found to be 4 µg/mL. Also, the EC50 with Human betaherpesvirus 5 [3] is > 0.8 µg/mL; in the series with Human betaherpesvirus 5 [4], > 0.8 µg/mL; in the series on Human alphaherpesvirus 3 [6], > 0.8 µg/mL; in the series with Human alphaherpesvirus 3 [7], > 0.8 µg/mL; in series [9] it was > 2.12 µg/mL; in [10], > 2.12 µg/mL. Moreover, the midpoint of cytotoxicity in [5], the CC50, lay at 1.94 µg/mL (≈ 5.24 µM). For the same compound, the CC50 at 96 h in series [8] stood at 2.12 µg/mL (≈ 5.72 µM).
On to `O=C(COc1cccc2ccccc12)N/N=C/c1ccc(Cl)cc1`, for which the logP in series [1] was found to be 4.54. The “-logMIC” value stood at 0.53 in the series with Aspergillus niger; 0.53 in the series with Candida albicans; 0.53 with Escherichia coli; 1.43 in the series with Staphylococcus aureus; 0.53 with Bacillus subtilis. Besides, the MCC in series [2] was 100 µg/mL. The EC50 in the series on Human betaherpesvirus 5 [3] is > 20 µg/mL; in the series with Human betaherpesvirus 5 [4], > 20 µg/mL; with Human alphaherpesvirus 3 [6], > 100 µg/mL; in the series on Human alphaherpesvirus 3 [7] it was > 100 µg/mL; in series [9], > 87.6 µg/mL; in [10], > 87.6 µg/mL. For the same compound, the CC50 in series [5] was found to be 100 µg/mL (≈ 295 µM). The same compound registered a CC50 at 96 h in [8] of 87.6 µg/mL (≈ 259 µM).
With `C/C(=N\NC(=O)COc1cccc2ccccc12)c1ccccc1`, the logP in series [1] came out at 3.65. In addition, the “-logMIC” value with Aspergillus niger, in the series on Candida albicans, in the series on Escherichia coli, in the series with Staphylococcus aureus and in the series on Bacillus subtilis was 0.82 each time. In addition, the MCC in series [2] was 20 µg/mL. Further, the EC50 in the series on Human betaherpesvirus 5 [3] is > 4 µg/mL; with Human betaherpesvirus 5 [4], > 4 µg/mL; in the series on Human alphaherpesvirus 3 [6], > 20 µg/mL; with Human alphaherpesvirus 3 [7] it was > 20 µg/mL; in series [9], > 105 µg/mL; in series [10], > 105 µg/mL. The compound further registered a half-maximal cytotoxic concentration (CC50) in series [5] of 20 µg/mL (≈ 62.8 µM). Further, the CC50 at 96 h in [8] was determined as 105 µg/mL (≈ 328 µM).
Compound `O=C(COc1cccc2ccccc12)N/N=C/c1cccc([N+](=O)[O-])c1` registered a logP in series [1] of 3.97. Moreover, the “-logMIC” value with Aspergillus niger came out at 0.84; in the series on Candida albicans it was 1.45; with Escherichia coli, 1.45; in the series on Staphylococcus aureus it was 1.14; in the series with Bacillus subtilis, 1.14. Besides, the MCC in [2] was ≥ 20 µg/mL. Moreover, the EC50 is > 20 µg/mL in the series with Human betaherpesvirus 5 [3]; > 4 µg/mL with Human betaherpesvirus 5 [4]; > 4 µg/mL with Human alphaherpesvirus 3 [6]; > 4 µg/mL with Human alphaherpesvirus 3 [7]; > 12.1 µg/mL in series [9]; > 12.1 µg/mL in series [10]. The compound also displayed a CC50 in series [5] of 61.2 µg/mL (≈ 175 µM). Also, the midpoint of cytotoxicity in series [8], the CC50 at 96 h, lay at 12.1 µg/mL (≈ 34.6 µM).
`O=C(COc1cccc2ccccc12)N/N=C/c1cccc(Cl)c1`: in [1], the logP is 4.54. The “-logMIC” value with Aspergillus niger is on record as 0.53; in the series on Candida albicans, 0.53; in the series with Escherichia coli, 0.53; in the series with Staphylococcus aureus, 0.83; in the series on Bacillus subtilis, 0.53. Moreover, the MCC in series [2] was determined as 100 µg/mL. Also, the EC50 is > 20 µg/mL with Human betaherpesvirus 5 [3]; > 20 µg/mL with Human betaherpesvirus 5 [4]; > 100 µg/mL in the series with Human alphaherpesvirus 3 [6]; > 100 µg/mL in the series with Human alphaherpesvirus 3 [7]; > 89.9 µg/mL in [9]; > 89.9 µg/mL in [10]. This compound also registered a CC50 in series [5] of 58.6 µg/mL (≈ 173 µM). The compound also had a CC50 at 96 h in [8] of 89.9 µg/mL (≈ 265 µM).
